We go through 1 compound from ChEMBL document CHEMBL1201862, “PubChem BioAssay data set” (2004).

Some test systems named below: NCI-H226; Malme-3M; HOP-62; CAKI-1; IGROV-1; EKVX; SK-MEL-5; HCT-116; RPMI-8226; OVCAR-5; SF-295; TK-10; NCI-H522; OVCAR-3; SN12C; SF-539; NCI-H460; SK-MEL-2; HT-29.
What all share (assay): growth of human tumour cells (NCI), 48 h

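Following 48 hours of exposure in 96-well plates, responses at five concentrations were used to interpolate endpoints linearly. Here, GI50 denotes the concentration required for 50% inhibition of growth.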 Activity calls are given as the source filed them. Rule as the data show it: active = GI50 up to about 1.1 µM and inactive = higher. A value given as a limit tells only on which side of the number the result lay.

`Cc1c2c(c(C)n1-c1ccccc1)C(=O)N(CCN1CCN(c3cccc(C(F)(F)F)c3)CC1)C2=O`: the GI50 is > 100 µM (inactive) in the experiment on NCI-H226; > 100 µM (inactive) in the experiment on Malme-3M; > 100 µM (inactive) with HOP-62; 84.7 µM (inactive) in the experiment with CAKI-1; > 100 µM (inactive) in the experiment on IGROV-1; 8.02 µM (inactive) with EKVX. In addition, the GI50 in the experiment with SK-MEL-5 is 5.25 µM (inactive); with HCT-116, 8.36 µM (inactive); in the experiment on RPMI-8226, 21.5 µM (inactive); in the experiment with OVCAR-5, > 100 µM (inactive); in the experiment on SF-295 it was 50.1 µM (inactive); in the experiment on TK-10, > 100 µM (inactive). The GI50 with NCI-H522 is 14.1 µM (inactive); with OVCAR-3, > 100 µM (inactive); with SN12C, 45 µM (inactive); in the experiment on SF-539, 87.1 µM (inactive); in the experiment with NCI-H460, 45.3 µM (inactive); in the experiment on SK-MEL-2 it was 0.719 µM (active). Also, the GI50 with HT-29 is 10.6 µM (inactive).
